pIC50: −log10 of the molar value. Several values for one entry are separate records, joined by “and”; a condition that tells them apart may be missing. Identical values can stand only once.
System: 947758-054-R-J2-PDC spheroid growth, percent test/control
Assay: Anticancer human tumor 947758-054-R-J2-PDC patient-derived colon adenocarcinoma cell line growth inhibition [CLK]
Settings: spheroids with HUVEC and MSC; for viability, T/C: stronger effect = lower value
Description: A high-throughput screen of multi-cell type tumor spheroids was designed to identify active combinations of […] and targeted small molecules. Complex spheroids include a stromal component modeled by human endothelial cells (HUVEC) and fibroblasts modeled by human mesenchymal stem cells (MSCs). The concentration ranges selected for each drug and investigational agent were based upon clinically achievable concentrations if the clinical Cmax of the agent was known.
Compounds. The drugs and investigational agents: cirtuvivint (SM08502; NSC835563), CC-671 (NSC850746), vemurafenib (NSC761431), tapotoclax (NSC804041), sotorasib (NSC818433), adagrasib (NSC831453), MRTX-1133 (NSC836407), BAY2416964 (NSC825713), copanlisib (NSC816437), inavolisib (NSC800729), abemaciclib (NSC768073), osimertinib (NSC779217), entinostat (NSC756642), eltanexor (KPT-8602, NSC794443), venetoclax (NSC766270), ceralasertib (NSC777638), bortezomib (NSC756655), olaparib (NSC753686), talazoparib (NSC767125), alisertib (NSC759677), peposertib (NSC802822), gemcitabine (NSC613327), 5-fluorouracil (NSC19893), SN-38 (NSC673596), oxaliplatin (NSC266046), paclitaxel (NSC125973), and doxorubicin (NSC123127), were obtained from the National Cancer Institute (NCI) Developmental Therapeutics Program Chemical Repository. The FDA-approved anticancer drug set is available from the Developmental Therapeutics Program at https://dtp.cancer.gov/organization/dscb/obtaining/available plates.htm. […] The stock solutions were prepared in dimethyl sulfoxide (DMSO, Sigma-Aldrich, St. Louis, MO, cat. D2650), except for the platinum complexes which were prepared in saline (Quality Biological, Gaithersburg, MD, cat. 114-055-101), at 800-fold the tested concentration and stored at -70 degrees C prior to their use. All drugs and investigational agents were tested over a range starting from a high concentration at or near the clinical Cmax and decreasing in half-log increments. If the clinical Cmax for an agent had not been determined, the highest concentration tested was 10 microM.
Cell Culture. All cells were maintained in an incubator at 37 degrees C and 5% CO2 with 95% humidity. The PDC lines were cultured according to standard operating procedures established by the NCI PDMR. Briefly, all PDCs were thawed and cultured in Matrigel-coated flasks prepared with a working solution of 1X Ham's F-12 nutrient mix, without supplementation (Invitrogen, Waltham, MA, cat. 11765054), 100 U/mL penicillin-streptomycin (Invitrogen, cat. 15140122), and 2.5% Matrigel (Corning Inc., Corning, NY, cat. 354248) for the first three passages. The 947758-054-R-J2-PDC line was cultured in 6B/Colon 1A media, which includes advanced DMEM/F-12 (Thermo Fisher Scientific, cat. 12634028), 10 mM HEPES (Thermo Fisher Scientific, cat. 15630080), 1X GlutaMAX supplement (Thermo Fisher Scientific, cat. 35050061), 0.1 mg/mL primocin (InvivoGen, cat. ant-pm-2), 10% defined fetal bovine serum, heat inactivated (HyClone Laboratories Inc., cat. SH30070.03HI), 1.25 mM N-Acetyl-L-cysteine (Sigma-Aldrich, cat. A9165), 10 mM nicotinamide (Sigma-Aldrich, cat. N0636), 1X B-27 supplement (Thermo Fisher Scientific, cat. 17504044), 1X N-2 supplement (Thermo Fisher Scientific, cat. 17502048), and 10 microM Y-27632 dihydrochloride (Tocris Bioscience, cat. 1254). The 876862-298-R-J1-PDC was cultured in 6E media, which includes all 6B/Colon 1A media components plus 50% L-WRN conditioned media (ATCC, cat. CRL-3276), 50 ng/mL recombinant human EGF recombinant protein (hEGF; Thermo Fisher Scientific, cat. PHG0311), 10 ng/mL recombinant human fibroblast growth factor 10 (hGFG-10; PeproTech, cat. 100-26), 1 ng/mL recombinant human fibroblast growth factor 2 (hFGF-2; PeproTech, cat. 100-18B), and 1 µM prostaglandin E2 (PGE2; Tocris, cat. 2296). The 227483-062-R1-J1-PDC line was cultured in Panc media, containing all 6E components except hFGF-2, with the addition of 500 nM SB-431542 (Selleckchem, cat. S1067) and 10 nM gastrin (Tocris, cat. 3006). […]

[1] = curve of first compound, second compound 0.0316 µM
[2] = curve of first compound, second compound 0.1 µM
[3] = curve of first compound, second compound 0.316 µM
[4] = curve of first compound, second compound 1 µM
[5] = curve of first compound, second compound 3.16 µM
[6] = curve of first compound, second compound 10 µM
[7] = second compound 0.0316 µM, first compound 0.0316 µM
[8] = second compound 0.0316 µM, first compound 0.1 µM
[9] = second compound 0.0316 µM, first compound 0.316 µM
[10] = second compound 0.0316 µM, first compound 1 µM
[11] = second compound 0.0316 µM, first compound 3.16 µM
[12] = second compound 0.0316 µM, first compound 10 µM
[13] = second compound 0.1 µM, first compound 0.0316 µM
[14] = second compound 0.1 µM, first compound 0.1 µM
[15] = second compound 0.1 µM, first compound 0.316 µM
[16] = second compound 0.1 µM, first compound 1 µM
[17] = second compound 0.1 µM, first compound 3.16 µM
[18] = second compound 0.1 µM, first compound 10 µM
[19] = second compound 0.316 µM, first compound 0.0316 µM
[20] = second compound 0.316 µM, first compound 0.1 µM
[21] = second compound 0.316 µM, first compound 0.316 µM
[22] = second compound 0.316 µM, first compound 1 µM
[23] = second compound 0.316 µM, first compound 3.16 µM
[24] = second compound 0.316 µM, first compound 10 µM
[25] = second compound 1 µM, first compound 0.0316 µM
[26] = second compound 1 µM, first compound 0.1 µM
[27] = second compound 1 µM, first compound 0.316 µM
[28] = second compound 1 µM, first compound 1 µM
[29] = second compound 1 µM, first compound 3.16 µM
[30] = second compound 1 µM, first compound 10 µM
[31] = second compound 3.16 µM, first compound 0.0316 µM
[32] = second compound 3.16 µM, first compound 0.1 µM
[33] = second compound 3.16 µM, first compound 0.316 µM
[34] = second compound 3.16 µM, first compound 1 µM
[35] = second compound 3.16 µM, first compound 3.16 µM
[36] = second compound 3.16 µM, first compound 10 µM
[37] = second compound 10 µM, first compound 0.0316 µM
[38] = second compound 10 µM, first compound 0.1 µM
[39] = second compound 10 µM, first compound 0.316 µM
[40] = second compound 10 µM, first compound 1 µM
[41] = second compound 10 µM, first compound 3.16 µM
[42] = second compound 10 µM, first compound 10 µM
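Also: spheroids exposed to compounds for one week before readout.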
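For viability, T/C in this document: 100% = DMSO vehicle control wells.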

## CC(CO)NC(=O)c1cc(-c2ccc(Cl)cc2)nn(-c2cnn(C)c2)c1=O (stereo not given) + CNC(=O)c1ccc(Nc2nc(OC3CCCC3)c3c(-c4ccc5nc(C)oc5c4)c[nH]c3n2)c(OC)c1
[1]
  pIC50: < 5.00
[2]
  pIC50: < 5.00
[3]
  pIC50: 5.01
[4]
  pIC50: < 5.00
[5]
  pIC50: > 7.50
[6]
  pIC50: > 7.50
[7]
  viability, T/C: 92.2%
[8]
  viability, T/C: 66.3%
[9]
  viability, T/C: 72.1%
[10]
  viability, T/C: 71.8%
[11]
  viability, T/C: 65.8%
[12]
  viability, T/C: 52.3%
[13]
  viability, T/C: 84.3%
[14]
  viability, T/C: 93.9%
[15]
  viability, T/C: 80%
[16]
  viability, T/C: 84.6%
[17]
  viability, T/C: 68.6%
[18]
  viability, T/C: 52.5%
[19]
  viability, T/C: 76.2%
[20]
  viability, T/C: 69%
[21]
  viability, T/C: 69.8%
[22]
  viability, T/C: 87.1%
[23]
  viability, T/C: 88.5%
[24]
  viability, T/C: 49.1%
[25]
  viability, T/C: 67.2%
[26]
  viability, T/C: 51.9%
[27]
  viability, T/C: 52.7%
[28]
  viability, T/C: 65.3%
[29]
  viability, T/C: 72.4%
[30]
  viability, T/C: 35.9%
[31]
  viability, T/C: 46.9%
[32]
  viability, T/C: 41%
[33]
  viability, T/C: 51.1%
[34]
  viability, T/C: 56.6%
[35]
  viability, T/C: 55.9%
[36]
  viability, T/C: 37.2%
[37]
  viability, T/C: 28.5%
[38]
  viability, T/C: 44.2%
[39]
  viability, T/C: 40.4%
[40]
  viability, T/C: 41.6%
[41]
  viability, T/C: 30%
[42]
  viability, T/C: 25.9%

## Nc1ccn(C2OC(CO)C(O)C2(F)F)c(=O)n1 (stereo not given)
Compound 0.0316 µM
  viability, T/C: 35.4% and 24.8%
Compound 0.1 µM
  viability, T/C: 9.92% and 9.41%
Compound 0.316 µM
  viability, T/C: 13.3% and 10.2%
Compound 1 µM
  viability, T/C: 14.8% and 12.9%
Compound 3.16 µM
  viability, T/C: 10.8% and 9.65%
Compound 10 µM
  viability, T/C: 8.94% and 10.9%
Curve of compound
  pIC50: > 7.50

## CC(Nc1ccc2c(c1)OCCn1cc(N3C(=O)OCC3C(F)F)nc1-2)C(N)=O (stereo not given)
Compound 0.0316 µM
  viability, T/C: 106% and 109%
Compound 0.1 µM
  viability, T/C: 96.5% and 102%
Compound 0.316 µM
  viability, T/C: 99.4% and 98.8%
Compound 1 µM
  viability, T/C: 93% and 85.2%
Compound 3.16 µM
  viability, T/C: 92.2% and 93.3%
Compound 10 µM
  viability, T/C: 93.6% and 88.5%
Curve of compound
  pIC50: < 5.00

## CCCS(=O)(=O)Nc1ccc(F)c(C(=O)c2c[nH]c3ncc(-c4ccc(Cl)cc4)cc23)c1F + CN1CCN(c2cc(C(=O)Nc3cc4cc(-c5cnn(C)c5)ccc4cn3)ccn2)CC1
[1]
  pIC50: < 5.00
[2]
  pIC50: 6.04
[3]
  pIC50: > 7.50
[4]
  pIC50: > 7.50
[5]
  pIC50: > 7.50
[6]
  pIC50: > 7.50
[7]
  viability, T/C: 99.5%
[8]
  viability, T/C: 99.4%
[9]
  viability, T/C: 79.7%
[10]
  viability, T/C: 74.3%
[11]
  viability, T/C: 79.6%
[12]
  viability, T/C: 63.8%
[13]
  viability, T/C: 128%
[14]
  viability, T/C: 176%
[15]
  viability, T/C: 101%
[16]
  viability, T/C: 50.9%
[17]
  viability, T/C: 50.8%
[18]
  viability, T/C: 34.5%
[19]
  viability, T/C: 3.8%
[20]
  viability, T/C: 4.14%
[21]
  viability, T/C: 4.9%
[22]
  viability, T/C: 4.06%
[23]
  viability, T/C: 4.73%
[24]
  viability, T/C: 3.59%
[25]
  viability, T/C: 0.85%
[26]
  viability, T/C: 1%
[27]
  viability, T/C: 0.17%
[28]
  viability, T/C: 0.15%
[29]
  viability, T/C: 1.2%
[30]
  viability, T/C: 0.11%
[31]
  viability, T/C: 0.94%
[32]
  viability, T/C: 1.18%
[33]
  viability, T/C: 1.32%
[34]
  viability, T/C: 0.16%
[35]
  viability, T/C: 0.84%
[36]
  viability, T/C: 1.58%
[37]
  viability, T/C: 1.3%
[38]
  viability, T/C: 1.75%
[39]
  viability, T/C: 0.41%
[40]
  viability, T/C: 0.42%
[41]
  viability, T/C: 1.25%
[42]
  viability, T/C: 0.41%

## COC1C=CCC(C)C(C)S(=O)(=O)NC(=O)c2ccc3c(c2)N(CC2CCC21)CC1(CCCc2cc(Cl)ccc21)CO3 (stereo not given)
Compound 0.0316 µM
  viability, T/C: 99.1% and 84.9%
Compound 0.1 µM
  viability, T/C: 77.1% and 86.7%
Compound 0.316 µM
  viability, T/C: 101% and 100%
Compound 1 µM
  viability, T/C: 75.3% and 81.2%
Compound 3.16 µM
  viability, T/C: 94.4% and 83.8%
Compound 10 µM
  viability, T/C: 41.3% and 42.6%
Curve of compound
  pIC50: 5.09

— PubChem BioAssay AID2060605 (Molecular Pharmacology Branch, DTP, NCI, 2025)
